{"source": "patent US7572770B2", "about": "“Use of an interleukin 1 receptor antagonist and/or pyrrolidinedithiocarbamate for the treatment or prophylaxis of type 2 diabetes” (University of Zurich, priority 2002, dated 2009)", "key": {"[1]": {"tested_on": "diabetes-prone Psammomys obesus", "assay": "Diabetes-prone Psammomys obesus on high-energy diet treated with phlorizin", "type": "in vivo", "from_the_text": "Animals. Psammomys obesus of both sexes (age 2.0-3.5 months) from the diabetes-prone and diabetes-resistant lines of the Hebrew University colonies were obtained from Harlan (Jerusalem, Israel). After weaning, diabetes-prone Psammomys obesus were maintained on a low-energy diet containing 2.38 kcal/g (Koffolk, Petach Tikva, Israel) until the start of the experiments, whereas diabetes-resistant Psammomys obesus were maintained on a […] (Weizmann Institute, Rehovot, Israel) to identify animals that develop diabetes and exclude them from the study (˜30-40% of the animals in the diabetes-resistant colony). All non-fasted animals with random blood glucose concentrations <7.8 mmol/l (Glucometer Elite, Bayer Diagnostics, Elkart, Ind.) were considered nondiabetic. Diabetes-prone Psammomys obesus switched to a high-energy diet, received an injection of 0.4 g/kg phlorizin (Sigma) or solvent (40% propylene glycol) every 12 h and were killed after 8 days. Psammomys obesus were anesthetized with ketamine (Ketalar, Park-Davis, Gwent, U.K.) and exsanguinated by cardiac puncture. The pancreas was rapidly removed, and immersion-fixed in 10% phosphate-buffered formalin. The animal studies were approved by the Institutional Animal Care and Use Committee of the Hebrew University and the Hadassah Medical Organization.\nDetection of IL-1β expressing β-cells. Pancreases from routine necropsies and pancreases from Psammomys obesus were immersion-fixed in formalin, followed by paraffin embedding. Sections were deparaffinized and rehydrated, and endogenous peroxidase blocked by submersion in 0.3% H2O2 for 15 min. Sections were then incubated in methanol for 4 min. After washing with PBS, cultured islets and isolated β-cells were fixed in 4% paraformaldehyde (30 min, room temperature) followed by permeabilisation with 0.5% triton X-100 (4 min, room temperature). Both tissue sections and cultured cells were double-labeled for IL-1β and insulin by 1 h exposure to 10% bovine serum albumin, followed by incubation (1 h, 37° C.) with mouse anti-IL-1β antibody (1:30 dilution, R&D Systems Inc.). Detection was performed using donkey anti-mouse Cy3 conjugated antibody (1:100 dilution, Jackson). Subsequently, specimens were incubated for 30 min at 37° C. with guinea pig anti-insulin antibody diluted 1:50 (Dako, Carpinteria, Calif.), followed by a 30 min incubation with a 1:20 dilution of fluorescein-conjugated rabbit anti-guinea pig antibody (Dako). For positive control of IL-1β staining, human mononuclear cells were isolated as described previously (37) and exposed for 2 h, 37° C. to 1 μg/ml lipopolysaccharide (Difco, Detroit, Ind.). […]"}, "type II IL-1R": {"target": "T1, type II IL-1R (Homo sapiens, UniProt P27930)", "T1 sequence (P27930 14-398)": "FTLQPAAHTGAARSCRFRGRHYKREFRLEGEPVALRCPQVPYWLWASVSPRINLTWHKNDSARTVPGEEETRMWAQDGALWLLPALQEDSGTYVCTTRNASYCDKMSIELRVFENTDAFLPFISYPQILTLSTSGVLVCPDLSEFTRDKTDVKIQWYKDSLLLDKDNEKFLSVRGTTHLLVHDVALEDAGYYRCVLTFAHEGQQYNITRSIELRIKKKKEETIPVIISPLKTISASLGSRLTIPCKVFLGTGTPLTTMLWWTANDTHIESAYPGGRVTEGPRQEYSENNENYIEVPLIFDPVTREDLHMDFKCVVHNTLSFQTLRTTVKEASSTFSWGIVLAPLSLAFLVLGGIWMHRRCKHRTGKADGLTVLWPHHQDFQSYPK", "settings": "read-out: Kd, binding to type II IL-1R; cited from earlier work"}, "human islets": {"tested_on": "human islets", "assay": "Insulin release and content of human islets", "type": "cell-based", "settings": "33.3 mM glucose or IL-1β, 4 days", "experimental": "(§1) Islet isolation and culture. Islets were isolated from pancreases of eleven organ donors at the Department of Surgery, University of Geneva Medical Center, as described (32-34). The islet purity was >95%, as judged by dithizone staining (if this degree of purity was not primarily achieved by routine isolation, islets were handpicked). […] For long-term in vitro studies, the islets were cultured on extracellular matrix-coated plates derived from bovine corneal endothelial cells (Novamed Ltd., Jerusalem, Israel), allowing the cells to attach to the dishes and spread, preserving their functional integrity (7;35). Islets were cultured in CMRL 1066 medium containing 100 U/ml penicillin, 100 μg/ml streptomycin and 10% fetal calf serum (Gibco, Gaithersburg, Md.), hereinafter referred to as culture medium. Two days after plating, when most islets were attached and began to flatten, the medium was changed to culture medium containing 5.5, 11.1 or 33.3 mM glucose. In some experiments, islets were additionally cultured with 2 ng/ml recombinant human IL-1β, 1000 U/ml recombinant human IFNγ (ReproTech EC Ltd, London, UK), 500 ng/ml IL-1β receptor antagonist (IL-1Ra) (R&D Systems Inc., Minneapolis, Minn.), 1 ng/ml membrane bound Fas-ligand (FasL) (36) (upstate biotechnology, Lake Placid, N.Y.) or with 100 μM pyrrolidinedithiocarbamate (PDTC; Sigma; 2 h per 2 d of culture).\nInsulin release and content. To determine acute insulin release in response to glucose stimulation, islets were washed in RPMI 1640 medium with 10% FCS and containing 3.3 mM glucose and pre-incubated for 1 h in the same medium. The medium was then discarded and replaced with fresh medium containing 3.3 mM glucose for 1 h for basal secretion, followed by an additional 1 h incubation in medium containing 16.7 mM glucose. Incubates were collected and frozen for insulin assays. […] Insulin was determined by a human insulin RIA kit (CIS bio international, Gif-Sur-Yvette, France)."}, "iNOS": {"tested_on": "iNOS", "assay": "iNOS expression in human islets", "type": "cell-based", "settings": "33 mM glucose or IL-1β alone, 44 hours", "experimental": "Western blot analysis. Islets were cultured in a culture medium in non-adherent plastic dishes. One day after isolation, the medium was changed and groups of 200 islets were incubated for 44 hours in culture medium containing 5.5 or 33.3 mM glucose without or with 2 ng/ml IL-1β or 500 ng/ml IL-1Ra. At the end of the incubations, islets were washed in PBS, suspended in 50 μl sample buffer containing 125 mM Tris-HCl, pH 6.8, 4% SDS, 10% glycerol, 0.3% bromphenol blue, 1.8% β-mercaptoethanol and boiled for 5 min. Equivalent amounts of each treatment group were run on 15% SDS polyacrylamide gels. […] Intensity of bands was analyzed using Multianalyst™ (Bio Rad, Laboratories inc., Hercules, Calif.).\nRNA extraction, RT-PCR and sequencing of RT-PCR product. […] The conditions of the PCR amplification for IL-1β and Fas were: denaturation 30 seconds at 94° C., annealing 30 seconds at 60° C. and elongation 30 seconds at 72° C., followed for real time PCR by quantification 5 seconds at 80° C., 45 cycles. […] For quantitative analysis, we used the Light Cycler quantitative PCR system (Roche, Basel, Switzerland) and performed quantitative PCR with a commercial kit (Light Cycler-DNA Master SYBR Green I; Roche). […]"}, "[2]": {"settings": "in vivo; cited from earlier work"}, "human islets β-cells": {"tested_on": "human islets β-cells", "assay": "β-cell apoptosis (TUNEL) and necrosis (propidium iodide) in human islets", "type": "cell-based", "settings": "33 mM glucose + exogenous FasL", "experimental": "as §1\nβ-cell apoptosis. The free 3-OH strand breaks resulting from DNA degradation were detected by the terminal deoxynucleotidyl transferase-mediated dUTP nick-end labeling (TUNEL) technique (38). After washing with PBS, cultured islets were fixed in 4% paraformaldehyde (30 min, room temperature) followed by permeabilisation with 0.5% triton X-100 (4 min, room temperature). The TUNEL assay was performed according to the manufacturer's instructions (In Situ Cell Death Detection Kit, AP; Boehringer Mannheim, Germany). […] The samples were immediately evaluated by fluorescence microscopy for positively stained […] nuclei."}, "[3]": {"settings": "high-energy diet 8 days, 0.4 g/kg phlorizin every 12 h"}}, "data": [{"molecule": "O=C(CCc1ccc(O)cc1)c1c(O)cc(O)cc1O[C@@H]1O[C@H](CO)[C@@H](O)[C@H](O)[C@H]1O", "note": "[phlorizin]", "values": [{"measurement": "IL-1β expression in β-cells", "setting": "[1]; [3]", "value": "prevented IL-1β expression"}, {"measurement": "blood glucose (in words)", "setting": "[1]; [3]", "value": "Normalization of blood glucose"}, {"measurement": "insulin stores of islets", "setting": "[1]; [3]", "value": "restored insulin stores"}, {"measurement": "blood glucose", "setting": "[1]; high-energy diet for 8 days with injections of phlorizin", "value": 5.6, "unit": "mM"}]}, {"molecule": "Interleukin-1β [IL-1β]", "values": [{"measurement": "Kd", "setting": "type II IL-1R", "value": "0.3 to 2", "unit": "nM"}, {"measurement": "acute glucose-stimulated insulin release after chronic exposure", "setting": "human islets", "value": "abolished acute glucose-stimulated insulin release"}, {"measurement": "iNOS mRNA or protein expression", "setting": "iNOS", "value": "Neither 33 mM glucose nor IL-1β alone induced iNOS mRNA"}]}, {"molecule": "anakinra", "values": [{"measurement": "half-life", "setting": "[2]", "value": "4 to 6", "unit": "h"}]}, {"molecule": "FasL: membrane bound Fas-ligand (protein, UniProt P48023 1-281, looked up, full-length) MQQPFNYPYPQIYWVDSSASSPWAPPGTVLPCPTSVPRRPGQRRPPPPPPPPPLPPPPPPPPLPPLPLPPLKKRGNHSTGLCLLVMFFMVLVALVGLGLGMFQLFHLQKELAELRESTSQMHTASSLEKQIGHPSPPPEKKELRKVAHLTGKSNSRSMPLEWEDTYGIVLLSGVKYKKGGLVINETGLYFVYSKVYFRGQSCNNLPLSHKVYMRNSKYPQDLVMMEGKMMSYCTTGQMWARSSYLGAVFNLTSADHLYVNVSELSLVNFEESQTFFGLYKL", "values": [{"measurement": "increase of TUNEL-positive β-cells compared to control at 5.5 mM glucose", "setting": "human islets β-cells", "value": "3.0+/−0.4 fold"}]}]}
